In publication PMC11281031, “A Machine-Learning-Driven Pathophysiology-Based New Approach Method for the Dose-Dependent Assessment of Hazardous Chemical Mixtures and Experimental Validations” (Toxics, 2024):

What was measured:
Type in all cases: in vivo
zebrafish embryos [1] = test: Dose-response zebrafish live assay, single chemicals (developmental toxicity); conditions: for concentration at which embryos were relatively normal / symptoms absent / lowest dose causing significant developmental abnormalities (toxic at): 2 dpf; for lethal concentration: 100% lethality / lethal by
Procedure: Dose-dependent toxicities in zebrafish embryos were assessed by the lowest dose that caused significant developmental abnormalities 2 days post-fertilization (2 dpf) in a dose-response live assay. […] Starting with Pyraclostrobin, it was identified as toxic at 30 nM. It induced developmental delays in the embryos without visible deformities. […] It appeared relatively normal at 5 µM. This twitching phenotype indicates specific neuronal toxicity. […] These symptoms were absent at lower concentrations (30 µM), highlighting a dosage-sensitive relationship.
(§1) First, the toxicity of single chemicals in zebrafish embryos is determined. Using the toxicity data of single chemicals as a baseline, we screened mixtures for altered activity and characterized the optimal concentration ratios of components. For chemical treatments, 1000× working stocks are prepared in DMSO. Dechorionated zebrafish embryos, […], are placed in 0.5 mL of fish water (0.3 g/L sea salt) in 24-well plates. The 1000× stock solution of chemicals is diluted to 2× in fish water with 2% DMSO added. Then, 0.5 mL of the 2× diluted chemical solution is added to the 0.5 mL of fish water containing the embryos to achieve a final concentration of 1× compound in 1% DMSO.
Figure 9 Dose-dependent toxicity assessment of AI-CPTM predicted chemicals (Table 1, Table 2, Table 3 and Table 4) as the lowest dose leading to, what is defined here, as significant developmental abnormalities at 2 days post-fertilization (2 dpf) in a dose-response zebrafish live assay.
We assessed individual chemicals for developmental toxicity, indicating any disruption in embryonic development from 1 to 4 days post-fertilization (dpf). Embryos are exposed to chemicals in their bath water from 1 dpf to 4 dpf, without changing the water during exposure. Initially, chemicals are screened by testing them at a series of concentrations increasing by half-log steps. […] Each embryo is assigned a score reflecting the severity of observed phenotypes, with the average score representing the group. The EC50 for developmental toxicity is defined as a score of five on this teratogenicity scale (Figure 10 and Supplementary Material S2). Once the effective range is identified, the EC50 is determined by testing a linear series of concentrations spanning from non-toxic to toxic levels. For chemicals not toxic at 10 µM, tests are extended up to 200 µM, with those showing no effects at this level considered non-toxic.

zebrafish embryos [2] = test: Zebrafish-embryo mixture toxicity, mixed chemical phenotype score and interaction; conditions: with DMSO, max 20 = normal
Procedure: as §1
Figure 10 Mixed chemical phenotypes and how they are scored. The mixed chemical phenotype score is the sum of the scores for the five individual fish in a well. Two wells were treated per chemical combination, and the scores are averaged for the wells. Scoring was as follows: dead = 0; severely deformed = 1; deformed = 2; slightly deformed = 3; and normal phenotypes = 4.
We tested the top 300 chemical mixtures, as prioritized by AI-CPTM, which were randomly selected and readily purchasable, on zebrafish embryos. […] We then compared the toxicity predictions made by the machine-learning model with the results obtained from the zebrafish assays.
The EC50, indicating the median effective concentration for developmental toxicity, is determined using morphological criteria. Fish are identified by date and well number (Figure 10). In each well containing five fish, the mixed compound phenotype score is the sum of the scores for the individual fish. Two wells are treated per combination, and the scores are averaged across these wells (Supplementary Material S2). Scoring follows this scale: dead = 0; severely deformed = 1; deformed = 2; slightly deformed = 3; normal phenotypes = 4. […] The EC50 and lowest observable effect concentration (LOEC) for binary mixtures are determined by testing a linear concentration series of the first chemical against five concentrations of the second chemical, including a vehicle control.

zebrafish embryos [3] = test: PFOS/PFOA zebrafish-embryo lethality (LD50), sub-lethal effects (EC50) and mixture survival assay; conditions: for LD50: embryos exposed at 2 dpf for 24 h at 33 °C, average of three experiments; for EC50: sub-lethal adverse effects, exposed at 2 dpf for 24 h at 33 °C
Description: The methodology for assessing the toxicity in zebrafish is detailed in our earlier publication. The data presented in Table 3 and Table 4 and Figure 12 show the acute and sub-lethal toxicity of PFOS and PFOA individually and in combination with zebrafish embryos. This initial study offered a comparative insight into their toxic profiles in terms of lethal (LD50) and effective (EC50) concentrations, which are important for measuring their toxic effects. […] These concentrations reflect the exposure of zebrafish embryos to PFOS and PFOA at 2 days post-fertilization (dpf) for one day at a temperature of 33 °C. […] These effects include severe developmental abnormalities, such as bent body axis, edema, cloudy tissue formation, and developmental delays, signaling significant toxicity even at lower concentrations.
We explored further the combined effects of PFOS and PFOA, as shown in Table 4 and Figure 12, to examine how varying concentrations of PFOS affect the LD50 of PFOA in a mixture. The LD50 is the dose at which 50% of the embryos are dead. […] A five dose-response curve for PFOA was tested against three fixed concentrations, 68 µM, 38 µM, and 22 µM of PFOS at 2 dpf for one day at 33 °C. […] Nonetheless, as each experiment is internally controlled, relative toxicity and mixture interactions are accurately detected.
PFOS requires a lower concentration to be lethal and affects development at much lower concentrations compared to PFOA. […] Five concentrations of PFOA were tested to generate the dose-response curves. […] Overall, these experiments support predictions of AI-CPTM toxicity and chemical interaction effects.

[4] = single chemical, tested up to 200 µM

Structure (SMILES): CC(C)(C)[C@@H](O)[C@@H](Cc1ccc(Cl)cc1)n1cncn1 (racemic) [Paclobutrazol]
- concentration at which embryos were relatively normal / symptoms absent (zebrafish embryos [1]; single chemical): 30000 nM
- lowest dose causing significant developmental abnormalities (toxic at) (zebrafish embryos [1]; [4]): 50 µM
- phenotype score of single chemical (Average / Compound #1 / Compound #2 phenotype score) (zebrafish embryos [2]; 50 µM): 17.5
- phenotype score of single chemical (Average / Compound #1 / Compound #2 phenotype score) (zebrafish embryos [2]; 100 µM): 20

Structure (SMILES): Oc1c(Br)cc(Br)cc1Br [2,4,6-Tribromophenol]
- lowest dose causing significant developmental abnormalities (toxic at) (zebrafish embryos [1]; [4]): 2 µM
- lethal concentration (zebrafish embryos [1]; single chemical): 10 µM
- phenotype score of single chemical (Average / Compound #1 / Compound #2 phenotype score) (zebrafish embryos [2]; 2 µM): 14
- phenotype score of single chemical (Average phenotype score) (zebrafish embryos [2]; 4 µM): 0

Structure (SMILES): CC1(C)C(C=C(Cl)Cl)C1C(=O)OC(C#N)c1ccc(F)c(Oc2ccccc2)c1 (stereo not drawn) [Baythroid]
- effect on embryo development (Figure 11) (zebrafish embryos [1]; at 200 µm): pronounced deformities
- lowest dose causing significant developmental abnormalities (toxic at) (zebrafish embryos [1]; [4]): 20 µM

Structure (SMILES): CCCCC(CC)COC(=O)c1ccccc1C(=O)OCC(CC)CCCC (stereo not drawn) [Bis-(2-Ethylhexyl) Phthalate]
- effect on embryo development (Figure 11) (zebrafish embryos [1]; at 200 µm): pronounced deformities
- lowest dose causing significant developmental abnormalities (toxic at) (zebrafish embryos [1]; [4]): > 200 µM

Structure (SMILES): CCCCOCN(C(=O)CCl)c1c(CC)cccc1CC [Butachlor]
- effect on embryo development (Figure 11) (zebrafish embryos [1]; at 200 µm): pronounced deformities
- concentration at which embryos were relatively normal / symptoms absent (zebrafish embryos [1]; single chemical): 100000 nM
- lowest dose causing significant developmental abnormalities (toxic at) (zebrafish embryos [1]; [4]): 200 µM
- phenotype score of single chemical (Average / Compound #1 / Compound #2 phenotype score) (zebrafish embryos [2]; 100 µM): 16
- phenotype score of single chemical (Average phenotype score) (zebrafish embryos [2]; 200 µM): 0

Structure (SMILES): O=C(OC1CCCCC1)c1ccccc1C(=O)OC1CCCCC1 [Dicyclohexyl Phthalate, Dicyclohexyl Phthalate (DCHP)]
- effect on embryo development (Figure 11) (zebrafish embryos [1]; at 200 µm): marked malformations and growth retardation
- lowest dose causing significant developmental abnormalities (toxic at) (zebrafish embryos [1]; [4]): 200 µM
- phenotype score of single chemical (Average / Compound #1 / Compound #2 phenotype score) (zebrafish embryos [2]; 100 µM): 20
- phenotype score of single chemical (Average phenotype score) (zebrafish embryos [2]; 200 µM): 20

Structure (SMILES): CC1(C)C(C(=O)OC(C#N)c2cccc(Oc3ccccc3)c2)C1(C)C (stereo not drawn) [Fenpropathrin]
- concentration at which embryos were relatively normal / symptoms absent (zebrafish embryos [1]; single chemical): 5000 nM
- lowest dose causing significant developmental abnormalities (toxic at) (zebrafish embryos [1]; [4]): 10 µM
- phenotype score of single chemical (Average / Compound #1 / Compound #2 phenotype score) (zebrafish embryos [2]; 5 µM): 10
- phenotype score of single chemical (Average phenotype score) (zebrafish embryos [2]; 10 µM): 0

Structure (SMILES): COCc1cnc(C2=NC(C)(C(C)C)C(=O)N2)c(C(=O)O)c1 (stereo not drawn) [Imazamox]
- effect on embryo development (Figure 11) (zebrafish embryos [1]; at 200 µm): marked malformations and growth retardation
- lowest dose causing significant developmental abnormalities (toxic at) (zebrafish embryos [1]; [4]): > 200 µM

Structure (SMILES): CC(CNCc1ccccc1O)NCc1ccccc1O (stereo not drawn) [Motor fuel oil, Alpha, alpha’-(1-methylethylenediimino)di-ortho-cresol]
- concentration at which embryos were relatively normal / symptoms absent (zebrafish embryos [1]; single chemical): 1000 nM
- lowest dose causing significant developmental abnormalities (toxic at) (zebrafish embryos [1]; [4]): 5 µM
- lethal concentration (zebrafish embryos [1]; single chemical): 10 µM
- phenotype score of single chemical (Average / Compound #1 / Compound #2 phenotype score) (zebrafish embryos [2]; 2.5 µM): 16
- phenotype score of single chemical (Average / Compound #1 / Compound #2 phenotype score) (zebrafish embryos [2]; 5 µM): 6

Structure (SMILES): O=C(O)C(F)(F)C(F)(F)C(F)(F)C(F)(F)C(F)(F)C(F)(F)C(F)(F)F [PFOA, Perfluorooctanoic acid (PFOA)]
- LD50 (zebrafish embryos [3]): 187.5 µM
- EC50 (zebrafish embryos [3]): 29.5 µM

Structure (SMILES): O=S(=O)(O)C(F)(F)C(F)(F)C(F)(F)C(F)(F)C(F)(F)C(F)(F)C(F)(F)C(F)(F)F [PFOS, Perfluorooctane sulfonic acid (PFOS)]
- survival (zebrafish embryos [3]; 68 μM PFOS, 0 μM PFOA): 100%
- LD50 (zebrafish embryos [3]): 53 µM
- EC50 (zebrafish embryos [3]): 11 µM

Structure (SMILES): COc1cnc(OC)n2nc(NS(=O)(=O)c3c(OCC(F)F)cccc3C(F)(F)F)nc12 [Penoxsulam]
- effect on embryo development (Figure 11) (zebrafish embryos [1]; at 200 µm): moderate deformities
- lowest dose causing significant developmental abnormalities (toxic at) (zebrafish embryos [1]; [4]): > 200 µM

Structure (SMILES): COC(=O)N(OC)c1ccccc1COc1ccn(-c2ccc(Cl)cc2)n1 [Pyraclostrobin]
- effect on embryo development (Figure 11) (zebrafish embryos [1]; at 30 nm): minimal effects
- effect on embryo development (Figure 11) (zebrafish embryos [1]; at 200 µm): significant embryonic damage
- concentration resulting in embryo lysis (zebrafish embryos [1]; single chemical): 100 nM
- lowest dose causing significant developmental abnormalities (toxic at) (zebrafish embryos [1]; single chemical): 0.03 µM
- phenotype score of single chemical (Average / Compound #1 / Compound #2 phenotype score) (zebrafish embryos [2]; 0.01 µM): 20
- phenotype score of single chemical (Average phenotype score) (zebrafish embryos [2]; 0.02 µM): 20

Structure (SMILES): CC(C)(C)c1ccc(CSc2cnn(C(C)(C)C)c(=O)c2Cl)cc1 [Pyridaben]
- effect on embryo development (Figure 11) (zebrafish embryos [1]; at 50 nm): noticeable developmental delays and morphological abnormalities
- concentration causing developmental stalling at the 8-somite stage (zebrafish embryos [1]; single chemical): 100 nM
- lowest dose causing significant developmental abnormalities (toxic at) (zebrafish embryos [1]; single chemical): 0.05 µM
- phenotype score of single chemical (Average / Compound #1 / Compound #2 phenotype score) (zebrafish embryos [2]; 0.05 µM): 20
- phenotype score of single chemical (Average phenotype score) (zebrafish embryos [2]; 0.1 µM): 18.5

Structure (SMILES): CC/C(=N\OC/C=C/Cl)C1=C(O)CC(C2CCOCC2)CC1=O (stereo not drawn) [Tepraloxydim]
- effect on embryo development (Figure 11) (zebrafish embryos [1]; at 200 µm): moderate deformities
- lowest dose causing significant developmental abnormalities (toxic at) (zebrafish embryos [1]; [4]): > 200 µM

Structure (SMILES): CC(C)=CC1C(C(=O)OCN2C(=O)C3=C(CCCC3)C2=O)C1(C)C (stereo not drawn) [Tetramethrin]
- effect on embryo development (Figure 11) (zebrafish embryos [1]; at 200 µm): pronounced deformities
- lowest dose causing significant developmental abnormalities (toxic at) (zebrafish embryos [1]; [4]): 5 µM
- phenotype score of single chemical (Average / Compound #1 / Compound #2 phenotype score) (zebrafish embryos [2]; 5 µM): 20
- phenotype score of single chemical (Average phenotype score) (zebrafish embryos [2]; 10 µM): 15

Structure (SMILES): COc1nc(C)nc(NC(=O)NS(=O)(=O)c2ccccc2OCCCl)n1 [Triasulfuron]
- lowest dose causing significant developmental abnormalities (toxic at) (zebrafish embryos [1]; [4]): > 200 µM
